Measured values reported in PMC6470589, “Contribution of Molecular Structure to Self-Assembling and Biological Properties of Bifunctional Lipid-Like 4-(N-Alkylpyridinium)-1,4-Dihydropyridines” (Pharmaceutics, 2019).
Several values for one entry are separate records, joined by “and”; a condition that tells them apart may be missing. Equal entries are not always repeated. Entries after “also recorded” stand apart in the source; their conditions may differ. Where two headings read alike, the source gives them in different places.

Assays:
[1] = MTT cytotoxicity assay on HT-1080 tumor cells, 72 h; type: cell-based, human; conditions: human, HT-1080 fibrosarcoma cells
Protocol: (§1) Tumor cell lines HT-1080 (human connective tissue fibrosarcoma) and MH-22A (mouse hepatocarcinoma) were used. All of the cells were obtained from the American Type Culture Collection ((ATCC,) Rockville, MD, USA). HT-1080 and MH-22A cells (4 × 10^4 cell/mL) were seeded in 96-well plates in Dulbecco’s modified Eagle’s medium (DMEM) containing 10% fetal bovine serum and cultivated for 72 h at 37 °C, 5% CO2 by exposure to different compounds concentrations (100 μg/mL, 25 μg/mL, 6.25 μg/mL, and 1.56 μg/mL). Cell viability was measured using 3-(4,5-dimethylthiazol-2-yl)-2,5-diphenyl-tetrazolium bromide (MTT) assay. In brief, after incubating with compounds, the culture medium was removed and fresh medium with 0.2 mg/mL MTT was added in each well of the plate. After incubation (3 h, 37 °C, 5% CO2), the medium with MTT was removed, and 200 μL of DMSO was added at once to each sample. The samples were tested at 540 nm on a Tecan multiplate reader Infinite1000 (Tecan Austria GmbH, Salzburg, Austria). The IC50 was calculated using the program Graph Pad Prism® 3.0.

[2] = tested on: Bacillus subtilis subsp. spizizenii; test: Toxicity screen, serial dilution-spot test; type: cell-based; conditions: gram positive; 24 h exposure in DI water, 28 °C; 0.0001 = no colonies at 0.001 mM;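 note: last dilution that did not fully inhibit growth with colonies still present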
Protocol: (§2) An estimation of the toxicity of 4-(N-alkylpyridinium)-1,4-DHP derivatives 3, 6, 7, and 9–11 was performed using six prokaryotic (bacteria) and one eukaryotic (yeast) microorganism species according to the procedure elaborated by Suppi et al.. The microorganisms used in the study and their origin were: Bacillus subtilis subsp. spizizenii (ATCC® 6633™*, Microbiologics®, St Cloud, MN, USA), Escherichia coli (ATCC® 8739, Microbiologics®), Klebsiella pneumoniae (Latvian Microorganisms strain collection, LMKK, strain number 535, Riga, Latvia), Micrococcus luteus (LMKK, No. 25), Pseudomonas aeruginosa (NCTC 12924, Biosciences Ltd., Dublin, Ireland), Proteus mirabilis (LMKK, No 590), and Saccharomyces cerevisiae, CEN.PK2 strain [32].
(§3) Bacteria and yeast cultures were cultivated until their exponential growth phase (optical density max 1); then, 100 µL of cell suspension was taken, washed in deionised (DI) water, and added to serially diluted samples of corresponding 4-(N-alkylpyridinium)-1,4-DHPs in DI water. All 1,4-DHPs were tested in five serially diluted concentrations (10 mM, 1 mM, 0.1 mM, 0.01 mM, and 0.001 mM). Test organisms were exposed to 1,4-DHP derivatives in DI water on 96-well microplates (Corning, Corning, NY, USA) at 28 °C for 24 h without shaking in the dark. Then, a 5 µL sample was taken from each well and spotted on yeast extract, bactopeptone, dextrose broth (YPD) (yeast extract 1%, bactopeptone 2%, glucose 2% and agar 2%) plates to test the growth of yeasts and lysogeny broth (LB) (yeast extract 0.5%, bactopeptone 1%, NaCl 0.5% and agar 2%) to test the growth for bacteria. Plates were left in 30 °C for 24 h, and assessed for microbial growth.
(§4) If there were no colonies after incubation with 1,4-DHPs in the last concentration of (0.001 mM), then their boundary concentration was set to 0.0001 mM or 0.1 µM.

Escherichia coli = test: Toxicity screen, serial dilution-spot test; type: cell-based; conditions: gram negative; 24 h exposure in DI water, 28 °C; 0.0001 = no colonies at 0.001 mM;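 note: last dilution that did not fully inhibit growth with colonies still present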
Protocol: as §2, §3, §4

Klebsiella pneumoniae = test: Toxicity screen, serial dilution-spot test; type: cell-based; conditions: gram negative; 24 h exposure in DI water, 28 °C; 0.0001 = no colonies at 0.001 mM;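 note: last dilution that did not fully inhibit growth with colonies still present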
Protocol: as §2, §3, §4

Micrococcus luteus = test: Toxicity screen, serial dilution-spot test; type: cell-based; conditions: gram positive; 24 h exposure in DI water, 28 °C; 0.0001 = no colonies at 0.001 mM;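 note: last dilution that did not fully inhibit growth with colonies still present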
Protocol: as §2, §3, §4

Proteus mirabilis = test: Toxicity screen, serial dilution-spot test; type: cell-based; conditions: gram negative; 24 h exposure in DI water, 28 °C; 0.0001 = no colonies at 0.001 mM;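 note: last dilution that did not fully inhibit growth with colonies still present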
Protocol: as §2, §3, §4

Pseudomonas aeruginosa = test: Toxicity screen, serial dilution-spot test; type: cell-based; conditions: gram negative; 24 h exposure in DI water, 28 °C; 0.0001 = no colonies at 0.001 mM;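 note: last dilution that did not fully inhibit growth with colonies still present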
Protocol: as §2, §3, §4

[3] = tested on: Saccharomyces cerevisiae, CEN.PK2 strain; test: Toxicity screen, serial dilution-spot test; type: cell-based; conditions: yeast; 24 h exposure in DI water, 28 °C; 0.0001 = no colonies at 0.001 mM;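 note: last dilution that did not fully inhibit growth with colonies still present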
Protocol: as §2, §3, §4

[4] = Self-assembling properties by dynamic light scattering (DLS); type: physicochemical; conditions: for PDI ± SD, 1 Set: freshly prepared samples; for Zeta-Pot ± SD: freshly prepared samples in water, 0.5 mg/mL (1–7), 0.25 mg/mL (8–10), 0.1 mg/mL (11); for PDI ± SD, 2 Set: two weeks after the first set, samples stored at r.t.; for Stability of nanoparticles: two weeks of storage at r.t., DLS
Protocol: Samples of compounds for dynamic light scattering (DLS) studies were prepared by thin-film hydration method in an aqueous solution at a concentration of 0.5 mg/mL for compounds 1–7, 0.25 mg/mL for compounds 8–10, and 0.1 mg/mL for compound 11. A corresponding amount of compounds was weighted in a round-bottom flask and dissolved in chloroform; then, the organic solvent was removed in vacuo, and the residue was dried in high vacuo for 1 h. An appropriate amount of deionised water was added to each flask for the preparation of stock solutions with the above-mentioned concentrations. Samples were prepared by sonication using a bath-type sonicator (Cole Parmer Ultrasonic Cleaner 8891CPX (Vernon Hills, IL, USA)). Samples were sonicated for 60 min at 50 °C.
The DLS measurements of the nanoparticles in an aqueous solution were carried out on a Zetasizer Nano ZSP (Malvern Panalytical Ltd., Malvern, UK) instrument with Malvern Instruments Ltd. Software 7.12, using the following specifications—medium: water; refractive index: 1.33; viscosity: 0.8872 cP; temperature: 25 °C; dielectric constant: 78.5; nanoparticles: liposomes; refractive index of materials: 1.60; detection angle: 173°; wavelength: 633 nm. Data were analysed using the multimodal number distribution software that was included with the instrument. The measurements were performed in triplicate in order to check their reproducibility.

[5] = tested on: neuroblastoma SH-SY5Y cell line; design: method as in doi:10.1016/j.crci.2013.07.003; conditions: read-out: Calcium antagonistic properties, IC50, SH-SY5Y; cited from earlier work
[6] = tested on: vascular smooth muscle A7R5 cell line; design: method as in doi:10.1016/j.crci.2013.07.003; conditions: read-out: Calcium antagonistic properties, IC50, A7R5; cited from earlier work
[7] = tested on: HT-1080 (human connective tissue fibrosarcoma) cells; test: MTT cytotoxicity assay on HT-1080 tumor cells, 72 h; type: cell-based; conditions: MTT, 72 h; ne = no effect in the tested concentration (up to 100 μg/mL)
Protocol: as §1

[8] = MTT, 72 h, ne = no effect in the tested concentration (up to 100 μg/mL), read-out: Cytotoxicity IC50, HT-1080

Row | SMILES | IC50 at 72 h [1, 8] | Boundary concentration, B. subtilis [2] | Boundary concentration, E. coli (Escherichia coli) | Boundary concentration, K. pneumoniae (Klebsiella pneumoniae) | Boundary concentration, M. luteus (Micrococcus luteus) | Boundary concentration, P. mirabilis (Proteus mirabilis) | Boundary concentration, P. aeruginosa (Pseudomonas aeruginosa) | Boundary concentration, S. cerevisiae [3] | PDI ± SD, 1 Set [4] | Zeta-Pot ± SD [4] | PDI ± SD, 2 Set [4] | Stability of nanoparticles [4] | IC50 [5] | IC50 [6] | IC50 at 72 h ([1]; as printed in the supplementary toxicity table, read-out: Cytotoxicity, IC50, HT-1080 (supplementary table, for comparison)) | Cytotoxicity IC50, HT-1080 [7] | IC50 [7]
1 | CCCCCCCCCCCC[n+]1cccc(C2C(C(=O)OCC)=C(C)NC(C)=C2C(=O)OCC)c1 [Compound 3] | 37 ± 2 µM | 0.01 mM | 0.01 mM | 0.1 mM | 0.001 mM | 0.001 mM | 0.01 mM | 0.001 mM | 0.14 and 0.14 ± 0.01 | +57.73 ± 2.30 mV | 0.17 and 0.17 ± 0.02 | stable after two weeks of storage; also recorded: confirmed the stability of nanoparticles | 5 to 14 µM | 0.6 to 0.7 µM |  |  | 
2 | C#CCN1C(C)=C(C(=O)OCC)C(c2ccc[n+](CCCCCCCCCCCC)c2)C(C(=O)OCC)=C1C [Compound 6] |  | 0.0001 mM | 0.001 mM | 0.1 mM | 0.0001 mM | 1 mM | 0.01 mM | 0.001 mM | 0.15 and 0.15 ± 0.02 |  | 0.20 and 0.20 ± 0.01 | stable after two weeks of storage; also recorded: confirmed the stability of nanoparticles | 5 to 14 µM | 0.6 to 0.7 µM |  |  | 
3 | C#CCOC(=O)C1=C(C)NC(C)=C(C(=O)OCC#C)C1c1ccc[n+](CC)c1 [Compound 7] |  | 0.1 mM | 1 mM | 10 mM | 0.001 mM | 0.1 mM | 0.01 mM | 1 mM | 0.90 and 0.90 ± 0.03 | −0.78 ± 0.26 mV | 0.73 ± 0.09 | weak stability |  |  | 1000 µM | did not demonstrate any cytotoxic effect and ne | 
4 | C#CCOC(=O)C1=C(C)NC(C)=C(C(=O)OCC#C)C1c1ccc[n+](CCCCCCCCCCCC)c1 [Compound 9] | 1 to 4 µM | 0.01 mM | 0.0001 mM | 0.1 mM | 0.0001 mM | 0.01 mM | 0.01 mM | 0.0001 mM | 0.36 and 0.36 ± 0.08 | +32.00 ± 4.81 mV | 0.57 and 0.57 ± 0.05 | lost their homogeneity after two weeks of storage |  |  |  |  | 2 ± 0.2 µM
